In a melting point compilation (Tetko et al.; mined from patent text by program, amines drawn as free bases though some values may be those of a salt):

| melting point [°C] | SMILES |
| --- | --- |
| 154 to 155 | CSc1ccc2c(=O)c(SC)cn(C)c2c1 |
| 165 | Cn1c(CC(=O)O)ccc1C(=O)c1cccc(Cl)c1 |
| 123 to 125 | CCCC1=C(C(=O)OCC)C(c2ccoc2C)c2c[nH]nc2N1 (stereo not drawn) |
| 118 to 121 | CCCc1nc(C(O)CCC)c(C(N)=O)n1Cc1ccc(-c2ccccc2C(=O)O)cc1 (stereo not drawn) |
| 322 to 323 | O=c1[nH]c(-c2ccc(F)cc2)nc2ccc(CN3CCOCC3)cc12 |
| 49 to 51 | COc1nc(C2CC2)nc(C(Cl)(Cl)Cl)n1 |
| 101 | COC(=O)c1cc2ccc(OC)cc2n1CCN1CCC(N)CC1 |
| 76 to 80 | CC(=O)Cc1ccc(OCc2ccc(Cl)cc2)cc1 |
| 118 to 119 | Cc1nc(-c2ccccc2)n(-c2ccc(S(C)(=O)=O)cc2)n1 |
| 239 to 241 | Nc1nc(-c2cc(Cl)ccc2Cl)nc(N2CCSCC2)n1 |
| 206 to 209 | COc1ccc(/C=C/C(=O)Nc2ccccc2C(=O)OCC(=O)O)cc1OC |
| 117 to 119 | COCC1(O)CCN(c2c(F)cc(N3C[C@H](CO)OC3=O)cc2F)CC1 |
| 178 | CNC(=C(Br)C#N)c1ccc(Cl)cc1 |
| 116 to 117 | CN(CCOc1ccc(CC(OCC(F)(F)F)C(=O)O)cc1)c1nc2ccccc2o1 (stereo not drawn) |
| 223 to 226 | NS(=O)(=O)c1cc2[nH]c(Cc3ccccc3Cl)nc2cc1Cl |
| 300 | N#Cc1c(O)csc1N |
| 64 to 64.3 | CCCCCCNC(=O)C#CBr |
| 135 to 137 | CC(C)=CC(=O)Nc1c(C(O)(C(F)(F)F)C(F)(F)F)ccc2ccccc12 |
| 120 to 122 | Cc1ccc(N)c(C(=O)NCC(C)Cn2ccnc2)c1 (stereo not drawn) |
| 102 to 104 | CCc1cccc(C)c1S(=O)(=O)c1nn(C(=O)N(CC)CC)cc1OC |
| 204 to 205 | N=C1NN(c2ccccc2)CC1CN1CCOCC1 (stereo not drawn) |
| 169 to 172 | COCCC1(C(=O)N[C@@H](Cc2ccc(NC(=O)c3cc(C#N)ccc3Cl)cc2)C(=O)O)CCCC1 |
| 45 | CCCCCCN1Cc2cc3ccccc3n2Cc2ccccc21 |
| 132 to 134 | CCOC(=O)c1ccc(-c2nc3ccccc3s2)cc1 |

| melting point [°C] | SMILES |
| --- | --- |
| 109 to 112 | CN(C)C=NS(=O)(=O)c1ccc(F)c(F)c1 |
| 185 to 186 | ON=C(Cn1ccnc1)c1ccc(Cl)cc1 |
| 173 to 174 | CCCn1nc2c(N)nc3ccccc3c2c1CCCc1cc[nH]c1 |
| 174 to 176 | CCOc1cc2c3ccccc3c(C=O)cc2c2ccccc12 |
| 199 | COc1ccc(C(=O)O)cc1C1(C)CCCCC1 |
| 26 to 27 | C#CCOc1cccc(CCCCCCCCCCCCCCC)c1 |
| 198 to 199 | CCCc1ccc(S(=O)(=O)Nc2ccc3nc(C)c(C)nc3c2)cc1 |
| 204 to 206 | CS(=O)c1csc(C(=O)C2C(=O)N(C(N)=O)c3ccc(Cl)cc32)c1 (stereo not drawn) |
| 240 to 241 | O=C(O)C1Cc2c(c(Cl)cc3c(-c4c(F)cccc4F)noc23)O1 (stereo not drawn) |
| 224 | Cc1cc2cc(Oc3ccccc3)cnc2cc1C |
| 119 | CCCc1oc2ccc([N+](=O)[O-])cc2c1C(=O)c1ccc(O)cc1 |
| 143 to 144 | COC(=O)C1=C(O)C(OC)(OC)C(O)=C(C(=O)OC)C1 |
| 185 | CN1CCC(OC2c3ccccc3CCn3c2nc(-c2ccccc2)c3C(=O)O)CC1 (stereo not drawn) |
| 84.8 to 85.1 | COc1cc(C)c2c(Oc3cccc(C(F)(F)F)c3)c(OC)cc(NC(C)CCC[N+](=O)[O-])c2n1 (stereo not drawn) |
| 262 to 263 | O=C(c1ccccc1C(c1ccc(O)cc1)c1ccc(O)cc1)N(c1ccccc1)c1ccccc1 |
| 191 | CC(C)(C)OC(=O)CN(C(=O)CNC(=O)Nc1cnc2ccccc2c1)c1ccccc1 |
| 60 | C#CCn1cc(CO)c([N+](=O)[O-])c1 |
| 91 | CCOC(=O)C(Cl)=Cc1cc([N+](=O)[O-])ccc1Cl |
| 147 to 148 | Cc1ccc(C(=O)Nc2ccccc2)cc1[N+](=O)[O-] |
| 156 to 158 | CNC(=NCCSCc1[nH]cnc1C)NS(=O)(=O)c1ccccc1 |
| 90 to 91 | CN(C)C(=O)c1cc(-c2ncc(C(F)(F)F)cc2Cl)ccc1Cl |
| 66 to 67 | Cc1ccc(OCc2ccccc2)cc1NCc1ccccc1 |
| 83.5 to 85.5 | C=C(CC)C(=O)c1ccc(OCC(=O)O)c(Cl)c1 |
| 144 to 146 | CCc1nc2c(N)nc3ccccc3c2n1CCOCCN |

| melting point [°C] | SMILES |
| --- | --- |
| 163 to 165 | Nc1nc(-c2cc(Cl)ccc2Cl)nc(N2CCNCC2)n1 |
| 112 | O=C(Oc1ccc2c(c1)CCCC2)Oc1ccc2c(c1)CCCC2 |
| 65 to 67 | O=[N+]([O-])c1cc(Br)ccc1Cl |
| 168 to 172 | OC[C@H](O)[C@H](O)COc1nc(N2CCNCC2)nc2ccccc12 (racemic) |
| 68 | COc1c(N)cc(Cl)c(OC)c1[N+](=O)[O-] |
| 47 to 49 | COc1ccc(CCNC(=O)C(N)=O)cc1OCCCCO |
| 179 to 180 | CCN(CC)c1cc(-c2ccco2)ncn1 |
| 138 | CCOC(=NC(=O)c1ccc(Cl)c(Cl)c1)N1Cc2ccccc2-c2ccccc2C1 |
| 195 to 196 | Cc1ccccc1-c1c(NC(=O)Nc2c(C)cccc2C(C)C)c(=O)n(C)c2ccc(Cl)cc12 |
| 167 to 168 | COc1ccc(OC)c2cc3c(cc12)C1OC3C2=C1CCC(C(C)=O)C2 (stereo not drawn) |
| 99 to 101 | CC(=O)c1cc2cc(C(C)(C)C)ccc2o1 |
| 115 | COc1cccc(N(CC(=O)N(C)c2ccccc2)C(=O)CNC(=O)Nc2cccc(C(C)O)c2)c1 (racemic) |
| 275 to 284 | COC(=O)c1ccc(-c2nc3cc(C(=O)O)ccc3o2)cc1 |
| 227 to 228 | O=C(Nc1c[nH]nc1C(=O)NCc1ccc(-c2ccccc2)cc1)c1ccccn1 |
| 140 to 150 | COc1ccc2[nH]cc(CC3=CCCN(CCCC(=O)c4cccs4)C3)c2c1 |
| 218 to 220 | COc1ccc2c(Cc3c(Cl)cncc3Cl)nnc(Nc3nccs3)c2c1 |
| 219 to 221 | O=[N+]([O-])c1cccc(-c2csc(NS(=O)(=O)Cc3ccccc3)n2)c1 |
| 201 to 202 | O=C(O)c1ccc(OCCC(c2ccccc2)(c2ccccc2)c2ccccc2)cc1 |
| 203 | CCCOc1ccc(S(=O)(=O)NCC2(NCC)CCCCCC2)cc1-c1nc2c([nH]1)c1nncn1c(=O)n2CCC |
| 115 | CCC(=O)c1cc(Cl)c(OC)cc1OC |
| 79 to 81 | C/C(=N\OC(=O)[C@@H]1CCCN(C(=O)OC(C)(C)C)C1)[C@H]1CC[C@H]2[C@@H]3CCC4=CC(=O)CC[C@]4(C)[C@H]3CC[C@]12C |
| 169 | O=Cc1ccc(-c2cn3ccnc3s2)cc1 |

| SMILES | melting point [°C] |
| --- | --- |
| CC(C(=O)O)c1cccc(NC(=O)NC2N=C(c3ccccc3F)c3ccccc3N(CC(=O)N3CC4CCC(CC4)C3)C2=O)c1 (racemic) | 187 to 204 |
| COC(=O)C=CC1C(C(=O)OC(C#N)c2cccc(Oc3ccccc3)c2)C1(C)C (stereo not drawn) | 98 |
| Cc1cc(C)c(Cn2cc(C(=O)C(=O)NC3=CC(=O)OC3)c3ccccc32)c(C)c1 | 288 to 290 |
